Source: article PMC5394417, “Investigating the molecular mechanism of positive and negative allosteric modulators in the calcium-sensing receptor dimer” (Scientific Reports, 2017)

Target: T1, HA-F821A CaSR mutant (Rattus norvegicus, UniProt P48442, F821A)
T1 construct: mGluR5 signal peptide (N); expressed in transfected cells; host or cells: HEK293T
T1 sequence (P48442 20-1079 F821A): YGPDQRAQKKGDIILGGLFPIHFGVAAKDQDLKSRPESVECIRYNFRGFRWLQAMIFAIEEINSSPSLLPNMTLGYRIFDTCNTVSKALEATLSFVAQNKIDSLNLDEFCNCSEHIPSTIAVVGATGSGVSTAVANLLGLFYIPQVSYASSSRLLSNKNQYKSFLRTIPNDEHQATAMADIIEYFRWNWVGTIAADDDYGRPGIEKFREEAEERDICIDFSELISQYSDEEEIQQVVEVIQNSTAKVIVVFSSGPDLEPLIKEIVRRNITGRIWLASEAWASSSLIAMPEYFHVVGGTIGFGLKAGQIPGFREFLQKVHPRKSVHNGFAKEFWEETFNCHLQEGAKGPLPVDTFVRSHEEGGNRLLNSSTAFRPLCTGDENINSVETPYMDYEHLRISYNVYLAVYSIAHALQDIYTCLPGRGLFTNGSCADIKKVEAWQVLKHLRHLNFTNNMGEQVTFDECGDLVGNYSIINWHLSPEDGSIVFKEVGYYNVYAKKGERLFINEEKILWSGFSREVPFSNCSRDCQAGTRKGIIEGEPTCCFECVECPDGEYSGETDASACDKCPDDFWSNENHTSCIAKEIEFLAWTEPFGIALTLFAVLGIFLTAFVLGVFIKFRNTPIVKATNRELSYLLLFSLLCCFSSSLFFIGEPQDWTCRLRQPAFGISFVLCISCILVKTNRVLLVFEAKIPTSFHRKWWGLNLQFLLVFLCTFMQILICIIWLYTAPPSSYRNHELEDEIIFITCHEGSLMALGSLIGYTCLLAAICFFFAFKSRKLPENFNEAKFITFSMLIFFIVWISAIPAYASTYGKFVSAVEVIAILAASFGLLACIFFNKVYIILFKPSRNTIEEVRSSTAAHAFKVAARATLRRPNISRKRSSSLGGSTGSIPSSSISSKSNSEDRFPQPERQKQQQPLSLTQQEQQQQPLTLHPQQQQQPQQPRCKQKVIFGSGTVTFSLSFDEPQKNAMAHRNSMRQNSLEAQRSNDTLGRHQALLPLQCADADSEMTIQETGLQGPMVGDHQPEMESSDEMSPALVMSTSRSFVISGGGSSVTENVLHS
Experiment: IP-One assay, HEK293T transiently transfected
Type: cell-based

[Ca+2] [Ca^2+]
EC50 (Ca^2+ alone): 2.35 mM
pEC50 ± S.E.M. (Ca^2+ alone): 2.63 ± 0.02
Max ± S.E.M. (Ca^2+ alone, normalized to maximum response of WT CaSR): 87 ± 4.3%
EC50 (Ca^2+ with 1 μM NPS R-568): 1.92 mM
pEC50 ± S.E.M. (Ca^2+ with 1 μM NPS R-568): 2.72 ± 0.01
Max ± S.E.M. (Ca^2+ with 1 μM NPS R-568, normalized to maximum response with Ca^2+ alone for the construct): 110 ± 14%
EC50 (Ca^2+ with 5 μM NPS 2143): 5.72 mM
pEC50 ± S.E.M. (Ca^2+ with 5 μM NPS 2143): 2.25 ± 0.05
Max ± S.E.M. (Ca^2+ with 5 μM NPS 2143, normalized to maximum response with Ca^2+ alone for the construct): 51 ± 8.0%
